ChEMBL document CHEMBL5584231, “Rational design of a new short anticancer peptide with good potential for cancer treatment” (Eur J Med Chem, 2024)
Activity calls are given as the source filed them. The calls are words filed in the database; no cut-off is given here.

Columns and labels:
MCF7 [1] = test: Cytotoxicity against human MCF7 cells assessed as cell killing at 1 times IC50 measured within 12 hrs by MTT assay; assay type: functional, cell-based
MCF7 [2] = test: Cytotoxicity against human MCF7 cells assessed as cell killing at 1 times IC50 measured at 24 hrs by MTT assay; assay type: functional, cell-based
MCF7 [3] = test: Cytotoxicity against human MCF7 cells assessed as cell viability at 2 times IC50 measured within 8 hrs by MTT assay; assay type: functional, cell-based
MCF7 [4] = test: Cytotoxicity against human MCF7 cells assessed as cell survival at 2 times IC50 incubated for 12 hrs by MTT assay relative to control; assay type: functional
MCF7 [5] = test: Cytotoxicity against human MCF7 cells assessed as cell survival at 2 times IC50 incubated for 24 hrs by MTT assay relative to control; assay type: functional
Cell membrane [6] = test: Disruption of cell membrane in human MCF7 cells assessed as LDH release at 2.5 to 40 uM incubated for 1 hr by fluorescence based microplate reader analysis; assay type: cell membranes; conditions: dose 2.5-40 µM
Cell membrane [7] = test: Induction of morphological changes in cell membrane of human MCF7 cells assessed as effect on normal cell shape with intact membrane surface at 1 to 2 times IC50 incubated for 1 hr by SEM analysis; assay type: cell membranes
Cell membrane [8] = test: Disruption of cell membrane integrity in human MCF7 cells assessed as increase in PI fluorescence at 1 times IC50 measured after 0 to 120 mins by laser confocal scanning microscopic analysis; assay type: cell membranes; conditions: time 0-120 min
Cell membrane [9] = test: Disruption of cell membrane integrity in human MCF7 cells assessed as increase in PI fluorescence at 2 times IC50 measured after 0 to 120 mins by laser confocal scanning microscopic analysis; assay type: cell membranes; conditions: time 0-120 min
Cell membrane [10] = test: Disruption of cell membrane integrity in human MCF7 cells assessed as increase in PI fluorescence at 1 to 2 times IC50 measured after 1 hr by laser confocal scanning microscopic analysis; assay type: cell membranes
Cell membrane [11] = test: Induction of cell membrane damage in human MCF7 cells assessed as protein leakage at 1 to 2 times IC50 measured after 0.5 to 6 hrs by UV based analysis; assay type: cell membranes; conditions: time 0.5-6 hrs
Cell membrane [12] = test: Induction of cell membrane damage in human MCF7 cells assessed as nucleic acid leakage at 1 to 2 times IC50 measured after 0.5 to 6 hrs by UV based analysis; assay type: cell membranes; conditions: time 0.5-6 hrs
MCF7 [13] = test: Effect on cell cycle progression in human MCF7 cells at 1 times IC50 measured after 1 hr by PI/RNase staining based flow cytometry analysis; assay type: functional
MCF7 [14] = test: Induction of cell cycle arrest at G2/M phase in human MCF7 cells assessed as increase in cells at G2/M phase at 1 times IC50 measured after 24 hrs by PI/RNase staining based flow cytometry analysis; assay type: functional
MCF7 [15] = test: Induction of apoptosis in human MCF7 cells assessed as live cells at 1 times IC50 measured after 24 hrs by Annexin V-FITC staining based flow cytometry analysis (reference value: 92%); assay type: functional
MCF7 [16] = test: Induction of apoptosis in human MCF7 cells assessed as early apoptotic cells at 1 times IC50 measured after 24 hrs by Annexin V-FITC staining based flow cytometry analysis (reference value: 0.014%); assay type: functional
MCF7 [17] = test: Induction of apoptosis in human MCF7 cells assessed as late apoptotic cells at 1 times IC50 measured after 24 hrs by Annexin V-FITC staining based flow cytometry analysis (reference value: 1.60%); assay type: functional
MCF7 [18] = test: Induction of apoptosis in human MCF7 cells assessed as dead cells at 1 times IC50 measured after 24 hrs by Annexin V-FITC staining based flow cytometry analysis (reference value: 6.41%); assay type: functional
MCF7 [19] = test: Induction of apoptosis in human MCF7 cells assessed as increase in intracellular ROS generation at 1 times IC50 measured after 0 to 360 mins by DCFH-DA staining based analysis; assay type: functional, cell-based; conditions: time 0-360 min
MCF7 [20] = test: Antimigratory activity in human MCF7 cells assessed as reduction in cell migration at 1 times IC50 measured after 24 hrs by scratch-wound healing assay; assay type: functional, cell-based
MCF7 [21] = test: Anti-invasion activity in human MCF7 cells assessed as reduction in number of passing cells on polycarbonate membrane at 1 times IC50 measured after 24 hrs by crystal violet staining based transwell assay; assay type: functional, cell-based
4T1 [22] = test: Antitumor activity against mouse 4T1 cells implanted in female Balb/c mouse assessed as reduction in tumor growth at 12 micromol/kg, ip administered every other day for 2 weeks and measured every 2 days; assay type: functional, organism-based; conditions: dose 12.0 µmol/kg
4T1 [23] = test: Antitumor activity against mouse 4T1 cells implanted in female Balb/c mouse assessed as reduction in tumor weight at 12 micromol/kg, ip administered every other day for 2 weeks and measured every 2 days relative to control; assay type: functional; parameters: scale not given: the % may be the effect or the level left; conditions: dose 12 µmol/kg
[24] = Toxicity in female Balb/c mouse implanted with mouse 4T1 cells assessed as reduction in body weight at 12 micromol/kg, ip administered every other day for 2 weeks and measured every 2 days; assay type: organism-based; conditions: in vivo, 336 h, dose 12 µmol/kg
[25] = Toxicity in female Balb/c mouse implanted with mouse 4T1 cells assessed as animal death at 12 micromol/kg, ip administered every other day for 2 weeks; assay type: organism-based; conditions: in vivo, 336 h, dose 12 µmol/kg
[26] = Toxicity in female Balb/c mouse implanted with mouse 4T1 cells assessed as pathological changes in heart at 12 micromol/kg, ip administered every other day for 2 weeks by H and E staining based analysis; assay type: organism-based; conditions: in vivo, 336 h, dose 12 µmol/kg
[27] = Toxicity in female Balb/c mouse implanted with mouse 4T1 cells assessed as pathological changes in liver at 12 micromol/kg, ip administered every other day for 2 weeks by H and E staining based analysis; assay type: organism-based; conditions: in vivo, 336 h, dose 12 µmol/kg
[28] = Toxicity in female Balb/c mouse implanted with mouse 4T1 cells assessed as pathological changes in spleen at 12 micromol/kg, ip administered every other day for 2 weeks by H and E staining based analysis; assay type: organism-based; conditions: in vivo, 336 h, dose 12 µmol/kg
[29] = Toxicity in female Balb/c mouse implanted with mouse 4T1 cells assessed as pathological changes in lung at 12 micromol/kg, ip administered every other day for 2 weeks by H and E staining based analysis; assay type: organism-based; conditions: in vivo, 336 h, dose 12 µmol/kg
[30] = Toxicity in female Balb/c mouse implanted with mouse 4T1 cells assessed as pathological changes in kidney at 12 micromol/kg, ip administered every other day for 2 weeks by H and E staining based analysis; assay type: organism-based; conditions: in vivo, 336 h, dose 12 µmol/kg
4T1 [31] = test: Antitumor activity against mouse 4T1 cells implanted in female Balb/c mouse assessed as increase in tumor cell apoptosis at 12 micromol/kg, ip administered every other day for 2 weeks by H and E staining based analysis; assay type: functional, organism-based; conditions: dose 12.0 µmol/kg
4T1 [32] = test: Antitumor activity against mouse 4T1 cells implanted in female Balb/c mouse assessed as increase in tumor cell necrosis at 12 micromol/kg, ip administered every other day for 2 weeks by H and E staining based analysis; assay type: functional, organism-based; conditions: dose 12.0 µmol/kg
[33] = Acute toxicity in female Balb/c mouse assessed as reduction in survival rate at 30 mg/kg, ip administered as single dose and measured for 7 days; assay type: organism-based; conditions: in vivo, 168 h, time 7 day
[34] = Acute toxicity in female Balb/c mouse assessed as reduction in survival rate at 38 to 60 mg/kg, ip administered as single dose and measured for 7 days; assay type: organism-based; conditions: in vivo, 168 h, dose 38-60 mg/kg, time 7 day
[35] = Acute toxicity in ip dosed female Balb/c mouse administered as single dose and measured for 7 days by karber method; assay type: organism-based; conditions: in vivo, time 7 day
[36] = Acute toxicity in female Balb/c mouse assessed as heart damage at approximately LD50 administered as single ip dose by H and E staining based analysis; assay type: organism-based; conditions: in vivo
[37] = Acute toxicity in female Balb/c mouse assessed as shrinking cytoplasm in kidney at approximately LD50 administered as single ip dose by H and E staining based analysis; assay type: organism-based; conditions: in vivo
[38] = Acute toxicity in female Balb/c mouse assessed as necrosis in kidney at approximately LD50 administered as single ip dose by H and E staining based analysis; assay type: organism-based; conditions: in vivo
HeLa = test: Cytotoxicity against human HeLa cells assessed as inhibition of cell growth incubated for 1 hr by MTT assay; assay type: functional, cell-based
MCF7 [39] = test: Cytotoxicity against human MCF7 cells assessed as inhibition of cell growth incubated for 1 hr by MTT assay; assay type: functional, cell-based; conditions: MCF7, 1 h
A549 = test: Cytotoxicity against human A549 cells assessed as inhibition of cell growth incubated for 1 hr by MTT assay; assay type: functional, cell-based; conditions: A549, 1 h
[40] = Cytotoxicity against HK-2 cells assessed as inhibition of cell growth incubated for 1 hr by MTT assay; assay type: toxicity, cell-based; conditions: human
[41] = Therapeutic index, ratio of HC10 for mouse RBC to IC50 for cytotoxicity against human HeLa cells; assay type: toxicity, cell-based; conditions: mouse RBC and HeLa cells, read-out: TI
[42] = Therapeutic index, ratio of HC10 for mouse RBC to IC50 for cytotoxicity against human MCF7 cells; assay type: toxicity, cell-based; conditions: mouse RBC and MCF7 cells, read-out: TI
[43] = Therapeutic index, ratio of HC10 for mouse RBC to IC50 for cytotoxicity against RG cells (unknown origin); assay type: toxicity, cell-based; conditions: mouse RBC and RG cells, read-out: TI
[44] = Therapeutic index, ratio of HC10 for mouse RBC to IC50 for cytotoxicity against human A549 cells; assay type: toxicity, cell-based; conditions: mouse RBC and A549 cells, read-out: TI
[45] = Hemolytic activity in mouse RBC at 12.5 uM incubated for 1 hr by absorbance based assay relative to control; assay type: toxicity, cell-based, Erythrocyte; conditions: red blood cells (erythrocytes), read-out: Activity
Cell membrane [46] = test: Disruption of cell membrane in human MCF7 cells assessed as LDH release at 40 uM incubated for 1 hr by fluorescence based microplate reader analysis relative to control; assay type: cell membranes
Cell membrane [47] = test: Induction of morphological changes in cell membrane of human MCF7 cells assessed as membrane damage at 1 times IC50 incubated for 1 hr by SEM analysis; assay type: cell membranes
Cell membrane [48] = test: Induction of morphological changes in cell membrane of human MCF7 cells assessed as cell depression at 1 times IC50 incubated for 1 hr by SEM analysis; assay type: cell membranes
Cell membrane [49] = test: Disruption of cell membrane integrity in human MCF7 cells assessed as increase in PI fluorescence at 1 times IC50 by laser confocal scanning microscopic analysis; conditions: time 0-120 min, TDE = time-dependent effect
Cell membrane [50] = test: Disruption of cell membrane integrity in human MCF7 cells assessed as increase in PI fluorescence measured after 1 hr by laser confocal scanning microscopic analysis; assay type: cell membranes

CC(=O)O[C@H]1C(=O)[C@@]2(C)[C@H]([C@H](OC(=O)c3ccccc3)[C@]3(O)C[C@H](OC(=O)[C@H](O)[C@@H](NC(=O)c4ccccc4)c4ccccc4)C(C)=C1C3(C)C)[C@]1(OC(C)=O)CO[C@@H]1C[C@@H]2O [PACLITAXEL]
Activity (MCF7 [1]): inactive | Activity (MCF7 [2]): Active | Activity (MCF7 [3]): inactive | Survival (MCF7 [4]): ~23.8% | Survival (MCF7 [5]): ~9.7% | Activity (Cell membrane [6]): inactive | Activity (Cell membrane [7]): inactive | Activity (Cell membrane [8]): inactive | Activity (Cell membrane [9]): inactive | Activity (Cell membrane [10]): inactive | Activity (Cell membrane [11]): inactive | Activity (Cell membrane [12]): inactive | Activity (MCF7 [13]): inactive | Activity (MCF7 [14]): Active | Activity (MCF7 [15]): 30.2% | Activity (MCF7 [16]): 48.4% | Activity (MCF7 [17]): 20.3% | Activity (MCF7 [18]): 1.13% | Activity (MCF7 [19]): Active | Activity (MCF7 [20]): Active | Activity (MCF7 [21]): Active | Activity (4T1 [22]): Active | Activity (4T1 [23]): 21.6% | Activity [24]: Non-Toxic | Activity [25]: Non-Toxic | Activity [26]: Non-Toxic | Activity [27]: Non-Toxic | Activity [28]: Non-Toxic | Activity [29]: Non-Toxic | Activity [30]: Non-Toxic | Activity (4T1 [31]): Active | Activity (4T1 [32]): Active | Activity [33]: Non-Toxic | Activity [34]: Toxic | LD50 at 168 h [35]: 39.7 mg/kg | Activity [36]: Non-Toxic | Activity [37]: Toxic | Activity [38]: Toxic

CC[C@H](C)[C@H](NC(=O)CN)C(=O)NCC(=O)N[C@@H](C)C(=O)N[C@H](C(=O)N[C@@H](CC(C)C)C(=O)N[C@@H](CCCCN)C(=O)N[C@H](C(=O)N[C@@H](CC(C)C)C(=O)N[C@H](C(=O)N[C@H](C(=O)NCC(=O)N[C@@H](CC(C)C)C(=O)N1CCC[C@H]1C(=O)N[C@@H](C)C(=O)N[C@@H](CC(C)C)C(=O)N[C@H](C(=O)N[C@@H](CO)C(=O)N[C@@H](Cc1c[nH]c2ccccc12)C(=O)N[C@H](C(=O)N[C@@H](CCCCN)C(=O)N[C@@H](CCCNC(=N)N)C(=O)N[C@@H](CCCCN)C(=O)N[C@@H](CCCNC(=N)N)C(=O)N[C@@H](CCC(N)=O)C(=O)N[C@@H](CCC(N)=O)C(N)=O)[C@@H](C)CC)[C@@H](C)CC)[C@@H](C)O)[C@@H](C)O)C(C)C)C(C)C [MELITTIN]
IC50 (HeLa): 934 nM | IC50 (MCF7 [39]): 1790 nM | IC50 (A549): 1830 nM | IC50 at 1 h [40]: 802 nM | selectivity ratio [41]: 1.44 | selectivity ratio [42]: 0.747 | selectivity ratio [43]: 0.859 | selectivity ratio [44]: 0.733 | hemolysis at 1 h, 12.5 µM [45]: > 85% | Activity (Cell membrane [46]): 86.8% | Activity (Cell membrane [47]): Active | Activity (Cell membrane [48]): Active | Activity (Cell membrane [49]): Tde | Activity (Cell membrane [50]): Dose-Dependent Effect | Activity (Cell membrane [11]): Active | Activity (Cell membrane [12]): Active
